# Where “and” joins values, the source holds several entries; their conditions need not be identical. Equal values may be shown once. Entries after “also recorded” stand apart in the source; their conditions may differ. Read-outs that look alike come from different tables or passages of the source.
# Legend:
# [1] = tested on: protein synthesis in HL-60 cells; test: Inhibition of [2,3,4,5-3H]L-Leu incorporation into protein of HL-60 cells; format: cell-based, human; conditions: Homo sapiens
# In short: (§1)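 HL-60 cells (2.2×10^6/ml) preincubated 15 min with compound (0.03 mg/ml, 0.3% DMSO), then 30 min with [5-3H]Cyd (5 μCi, 0.23 nmol/ml) for RNA or [2,3,4,5-3H]L-Leu (0.5 μCi, 0.004 nmol/ml) for protein. Inhibition relative to DMSO-only incorporation.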
# [2] = tested on: RNA synthesis in HL-60 cells; test: Inhibition of [5-3H]Cyd incorporation into RNA of HL-60 cells; format: cell-based, human; conditions: Homo sapiens, HL-60, 0.5 h
# In short: as §1
# [3] = tested on: Carcinoma EO771; test: Carcinoma EO771 (E07713 mammary adenocarcinoma) survival time evaluation in C57BL/6 mice; format: in vivo
# Source text: Tumor-Carcinoma EO771 3 × 10^5 cells (ip) in C57BL/6, FEM,
# (§2) Diluent-CMC + 1 drop Tween 80
# (§3) Schedule: Day 1, QDX4 (ip)
# [4] = tested on: DNA synthesis in HL-60 cells; test: Inhibition of [3H-methyl]dThd incorporation into DNA of HL-60 cells; format: cell-based, human; conditions: Homo sapiens, HL-60, at 0.03 mg/mL; read-out: % Inhibition of Precursor Incorporation, DNA
# In short: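 HL-60 cells, 2.2×10^6 /ml, preincubated 15 min with compound in 0.3% DMSO, then 30 min with [3H-methyl]dThd (1 μCi, 0.15 nmole/ml). DNA incorporation compared with DMSO-only control.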
# [5] = tested on: HL-60 cells; test: HL-60 cell growth inhibition, 72 h; format: cell-based, human; conditions: HL-60, 72 h; for IC50: read-out: Cell Growth Inhibition, IC50
# In short: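 HL-60 cells seeded at 1.5×10^5/ml in RPMI 1640, exposed 72 h at 37° C, 5% CO2 to compound at 0.0025-0.05 mg/ml in 0.1% DMSO. Viable cells counted by trypan blue exclusion; IC50 from median-effect analysis over three to five dose levels versus DMSO control.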
# [6] = tested on: Lewis lung carcinoma; test: Lewis lung carcinoma survival time evaluation in C57BL/6 mice; format: in vivo, mouse; set-up: Survival Time, individual mice / AST (average survival time): unit not given here; conditions: for AST (average survival time) / Day #7 AWC (average weight change) / N/T (29 day survivors/total mice) / Survival Time, individual mice / % ILS (increase in lifespan): day 1, QDX4 ip; for % ILS (increase in lifespan): 25% or greater indicates activity
# Source text: Tumor-Lewis Lung C. 3 × 10^5 cells (ip) in C57BL/6, FEM, 19-21
# as §2, §3
# [7] = tested on: B-16 Melanoma; test: B-16 melanoma in mice; format: in vivo, mouse; conditions: day 1 QDX4
# Source text: Chemotherapeutic Effects of Acronycine and TSA-35 against Solid
# [8] = Table 8, 50 mg/kg ip, day 1 QDX4
# [9] = Table 8, 100 mg/kg ip, day 1 QDX4
# [10] = Table 8, 25 mg/kg ip, day 1 QDX4
# [11] = Table 8, 150 mg/kg ip, day 1 QDX4
compound,measurement,setting,value
"COc1cc2c(c3c1c(=O)c1ccccc1n3C)C=CC(C)(C)O2 [Compound 1, Acronycine]",inhibition at 30 µg/mL,"[1]; HL-60, read-out: % Inhibition of Precursor Incorporation, Protein, at 0.03 mg/mL",25.4%
same,inhibition at 30 µg/mL,"[2]; read-out: % Inhibition of Precursor Incorporation, RNA, at 0.03 mg/mL",21.3%
same,AST (average survival time),"[3]; 50 mg/kg, day 1, QDX4 ip",13.4
same,Day #7 AWC (average weight change),"[3]; 50 mg/kg, day 1, QDX4 ip",+0.4 g
same,N/T (22 day survivors/total mice),"[3]; 50 mg/kg, day 1, QDX4 ip",0/5
same,"Survival Time, individual mice","[3]; 50 mg/kg, day 1, QDX4 ip",11 and 14 and 17
same,% ILS (increase in lifespan),"[3]; 50 mg/kg, day 1, QDX4 ip, 25% or greater indicates activity",26%
same,toxicity induced deaths,[3]; 100 mg/kg daily for 4 days ip,1 out of 3
same,AST (average survival time),"[3]; 100 mg/kg, day 1, QDX4 ip",11.0
same,Day #7 AWC (average weight change),"[3]; 100 mg/kg, day 1, QDX4 ip",+0.5 g
same,N/T (22 day survivors/total mice),"[3]; 100 mg/kg, day 1, QDX4 ip",0/3
same,% ILS (increase in lifespan),"[3]; 100 mg/kg, day 1, QDX4 ip, 25% or greater indicates activity",4%
same,"Survival Time, individual mice","[3]; 100 mg/kg, day 1, QDX4 ip, t = died of toxicity",4t and 10 and 12
same,% ILS,[3]; [8],26%
same,Day 7 BWC (body weight change),[3]; [8],+0.4 g
same,N/T (40 day tumorfree mice/total),[3]; [8],0/5
same,% ILS,[3]; [9],4%
same,N/T (40 day tumorfree mice/total),[3]; [9],0/3
same,death,[3]; [9],1/3
same,inhibition at 30 µg/mL,[4],~90%
same,"cell growth inhibition, in words",[5],significantly active
same,AST (average survival time),[6]; 25 mg/kg,14.6
same,Day #7 AWC (average weight change),[6]; 25 mg/kg,-0.6 g
same,N/T (29 day survivors/total mice),[6]; 25 mg/kg,0/5
same,"Survival Time, individual mice",[6]; 25 mg/kg,14 and 17
same,% ILS (increase in lifespan),[6]; 25 mg/kg,40%
same,AST (average survival time),[6]; 50 mg/kg,14.6
same,Day #7 AWC (average weight change),[6]; 50 mg/kg,-0.8 g
same,N/T (29 day survivors/total mice),[6]; 50 mg/kg,0/5
same,"Survival Time, individual mice",[6]; 50 mg/kg,14 and 15
same,% ILS (increase in lifespan),[6]; 50 mg/kg,40%
same,% ILS,[6]; [10],40%
same,Day 7 BWC (body weight change),[6]; [10],-0.6 g
same,N/T (40 day tumorfree mice/total),[6]; [10],0/5
same,% ILS,[6]; [8],34%
same,Day 7 BWC (body weight change),[6]; [8],-0.5 g
same,N/T (40 day tumorfree mice/total),[6]; [8],0/15
same,N/T (40 day tumorfree mice/total),[6]; [9],0/5
same,death,[6]; [9],5/5
same,% ILS,[7]; 50 mg/kg ip,24%
same,Day 7 BWC (body weight change),[7]; 50 mg/kg ip,-0.6 g
same,N/T (40 day tumorfree mice/total),[7]; 50 mg/kg ip,0/5
"COc1c(OC)c(OC)c2c(c1O)c(=O)c1ccc(O)c(OC)c1n2C [Compound 31, Glyfoline]",inhibition at 30 µg/mL,"[1]; HL-60, at 0.03 mg/mL, read-out: % Inhibition of Precursor Incorporation, Protein",90.7%
same,inhibition at 30 µg/mL,"[2]; at 0.03 mg/mL, read-out: % Inhibition of Precursor Incorporation, RNA",65.7%
same,AST (average survival time),"[3]; 50 mg/kg, day 1, QDX4 ip",12.4
same,N/T (22 day survivors/total mice),"[3]; 50 mg/kg, day 1, QDX4 ip",0/5
same,"Survival Time, individual mice","[3]; 50 mg/kg, day 1, QDX4 ip, listed as TSA-35",10 and 11 and 12 and 14 and 15
same,AST (average survival time),"[3]; 100 mg/kg, day 1, QDX4 ip",> 15
same,N/T (22 day survivors/total mice),"[3]; 100 mg/kg, day 1, QDX4 ip",1/3
same,"Survival Time, individual mice","[3]; 100 mg/kg, day 1, QDX4 ip, t = died of toxicity, listed as TSA-35",11 and > 22
same,% ILS (increase in lifespan),"[3]; ip, 50 mg/kg, 24 h",17%
same,% ILS (increase in lifespan),"[3]; ip, 100 mg/kg, 24 h",> 39%
same,toxicity induced deaths,"[3]; mouse, in vivo",no deaths
same,Day 7 BWC (body weight change),"[3]; mouse, in vivo, ip, 25 mg/kg",+0.6 g
same,Day 7 BWC (body weight change),"[3]; mouse, in vivo, ip, 50 mg/kg",+0.3 g
same,inhibition at 30 µg/mL,[4],93.5%
same,"Cell Growth Inhibition, IC50",[5],0.4 µg/mL
same,"cell growth inhibition, in words",[5],most potent compound in this series; also recorded: significant activity against leukemic cells in vitro
same,IC50,[5],1.11 µM
same,IC50,[5]; Homo sapiens,0.4 µg/mL and 1.1 µM
same,AST (average survival time),[6]; 25 mg/kg,14.8
same,N/T (29 day survivors/total mice),[6]; 25 mg/kg,0/5
same,% ILS (increase in lifespan),[6]; 25 mg/kg,42%
same,"Survival Time, individual mice","[6]; 25 mg/kg, listed as TSA-35",14 and 18
same,AST (average survival time),[6]; 50 mg/kg,> 20
same,N/T (29 day survivors/total mice),[6]; 50 mg/kg,2 out of 5
same,% ILS (increase in lifespan),[6]; 50 mg/kg,> 92%
same,N/T (29 day survivors/total mice),"[6]; 50 mg/kg, listed as TSA-35",2/5
same,"Survival Time, individual mice","[6]; 50 mg/kg, listed as TSA-35",14 and > 29
same,% ILS,[6]; [10],42%
same,N/T (40 day tumorfree mice/total),[6]; [10],0/5
same,% ILS,[6]; [8],> 59%
same,N/T (40 day tumorfree mice/total),[6]; [8],2/15
same,% ILS,[6]; [9],> 46%
same,N/T (40 day tumorfree mice/total),[6]; [9],1/10
same,% ILS,[6]; [11],> 79%
same,N/T (40 day tumorfree mice/total),[6]; [11],2/8
same,"toxicity to mice, in words","[6]; mouse, in vivo",less toxicity to mice than that of compound 1
same,Day 7 BWC (body weight change),"[6]; mouse, in vivo, ip, 25 mg/kg",+0.2 g
same,Day 7 BWC (body weight change),"[6]; mouse, in vivo, ip, 50 mg/kg",+0.3 g
same,Day 7 BWC (body weight change),"[6]; mouse, in vivo, ip, 100 mg/kg",+0.5 g
same,Day 7 BWC (body weight change),"[6]; mouse, in vivo, ip, 150 mg/kg",-0.3 g
same,% ILS,[7]; 25 mg/kg ip,31%
same,N/T (40 day tumorfree mice/total),[7]; 25 mg/kg ip,0/5
same,% ILS,[7]; 50 mg/kg ip,40%
same,N/T (40 day tumorfree mice/total),[7]; 50 mg/kg ip,0/5
same,% ILS,[7]; 150 mg/kg ip,> 56%
same,N/T (40 day tumorfree mice/total),[7]; 150 mg/kg ip,1/5

# — patent US5340818A, “Methods and compositions for inhibiting tumor cell growth” (priority 1993, dated 1994)
